ChEMBL document CHEMBL4334518, “Discovery and Pharmacological Studies of 4-Hydroxyphenyl-Derived Phosphonium Salts Active in a Mouse Model of Visceral Leishmaniasis” (J Med Chem, 2019)

Columns and labels:
Leishmania donovani [1] = assay: Antileishmanial activity against Leishmania donovani MHOM/ET/67/HU3 intracellular amastigotes infected in human THP1 cells after 96 hrs by prolong-gold antifade-reagent/DAPI staining based assay; format: functional, organism-based; conditions: MHOM/ET/67/HU3, THP-1, 96 h
Leishmania donovani [2] = assay: Antileishmanial activity against Leishmania donovani MHOM/ET/67/HU3 promastigote after 72 hrs by MTT assay; format: functional, organism-based; conditions: MHOM/ET/67/HU3, 72 h
[3] = Selectivity index, ratio of EC50 for cytotoxicity against human THP1 cells to EC50 for antileishmanial activity against Leishmania donovani MHOM/ET/67/HU3 amastigotes infected in human THP1 cells; format: toxicity, cell-based; conditions: read-out: Ratio EC50
THP-1 = assay: Cytotoxicity against human THP1 cells assessed as reduction in cell viability after 72 hrs by MTT assay; format: cell-based; conditions: THP-1, 72 h
Leishmania donovani [4] = assay: Potency index, ratio of amphotericin B EC50 to test compound EC50 for antileishmanial activity against Leishmania […] amastigote infected in THP1 cells; format: functional
[5] = Selectivity index, ratio of EC50 for cytotoxicity against human MRC5 cells to EC50 for antileishmanial activity against Leishmania donovani MHOM/ET/67/HU3 amastigotes infected in human THP1 cells; format: toxicity, cell-based; conditions: read-out: Ratio EC50
Leishmania infantum [6] = assay: Antileishmanial activity against Leishmania infantum LEM 3049 isolate intracellular amastigotes infected in human THP1 cells after 96 hrs by prolong-gold antifade-reagent/DAPI staining based assay; format: functional, organism-based; conditions: THP-1, 96 h
Leishmania infantum [7] = assay: Antileishmanial activity against MIL/paromomycin resistant Leishmania infantum LEM 2126 isolate promastigote after 72 hrs by MTT assay; format: functional, organism-based
Leishmania infantum [8] = assay: Antileishmanial activity against MIL resistant Leishmania infantum LEM 5159 isolate intracellular amastigotes infected in human THP1 cells after 96 hrs by prolong-gold antifade-reagent/DAPI staining based assay; format: functional, organism-based; conditions: THP-1, 96 h
Leishmania infantum [9] = assay: Antileishmanial activity against Leishmania infantum LEM 3049 isolate promastigote after 72 hrs by MTT assay; format: functional, organism-based
Leishmania infantum [10] = assay: Antileishmanial activity against Sb 3 resistant Leishmania infantum LEM 3329 isolate intracellular amastigotes infected in human THP1 cells after 96 hrs by prolong-gold antifade-reagent/DAPI staining based assay; format: functional, organism-based; conditions: THP-1, 96 h
Leishmania infantum [11] = assay: Antileishmanial activity against MIL resistant Leishmania infantum LEM 5159 isolate promastigote after 72 hrs by MTT assay; format: functional, organism-based
Leishmania infantum [12] = assay: Antileishmanial activity against Sb 3 resistant Leishmania infantum LEM 3329 isolate promastigote after 72 hrs by MTT assay; format: functional, organism-based
Leishmania infantum [13] = assay: Antileishmanial activity against MIL/paromomycin resistant Leishmania infantum LEM 2126 isolate intracellular amastigotes infected in human THP1 cells after 96 hrs by prolong-gold antifade-reagent/DAPI staining based assay; format: functional, organism-based; conditions: THP-1, 96 h

With O=C(OCCCCCCCCCCCC[P+](c1ccccc1)(c1ccccc1)c1ccccc1)c1ccc(O)cc1O as the compound, how does the EC50 (Leishmania donovani [1]) read?
The EC50 was < 1000 nM.

What about the EC50 (Leishmania donovani [2]) of the same compound?
Its EC50 is < 1000 nM.

What about the selectivity ratio [3] of the same compound?
Its selectivity ratio is > 10.

For Cc1cc(O)ccc1C(=O)CCCCCCCCCCCCCCC[P+](c1ccccc1)(c1ccccc1)c1ccccn1.[Br-], which EC50 (Leishmania donovani [1]) is on record?
Its EC50 is 100 nM.

What about the EC50 (Leishmania donovani [2]) of the same compound?
Its EC50 is 280 nM.

What about the EC50 (THP-1) of the same compound?
Its EC50 is 2110 nM.

What about the selectivity ratio [3] of the same compound?
Its selectivity ratio is 21.1.

And the “Ratio EC50” value (Leishmania donovani [4])?
The value was 2.

Which EC50 (Leishmania donovani [1]) does the source give for CCOC(=O)c1c(C)cc(OCCCCCCCCCCCCCC[P+](c2ccccc2)(c2ccccc2)c2ccccc2)cc1O here?
The EC50 was < 1000 nM.

What about the selectivity ratio [5] of the same compound?
The selectivity ratio was 2 to 27.

With O=C(O)c1ccc(OCCCCCCCCCC[P+](c2ccccc2)(c2ccccc2)c2ccccc2)cc1O as the compound, how does the EC50 (Leishmania donovani [1]) read?
The EC50 was < 200 nM.

And the EC50 (Leishmania donovani [2])?
Its EC50 is < 200 nM.

And the selectivity ratio [5]?
Its selectivity ratio is 2 to 27.

With Cc1cc(O)ccc1C(=O)CCCCCCCCCCCCCCC[P+](c1ccccc1)(c1ccccc1)c1ccccc1.[Br-] as the compound, how does the EC50 (Leishmania donovani [1]) read?
Its EC50 is 100 nM.

And the EC50 (Leishmania donovani [2])?
Its EC50 is 90 nM.

And the EC50 (THP-1)?
The EC50 was 2450 nM.

What about the selectivity ratio [3] of the same compound?
Its selectivity ratio is 24.5.

And the “Ratio EC50” value (Leishmania donovani [4])?
Its value is 2.

With C[C@@H]1[C@H](O)[C@@H](C)/C=C/C=C/C=C/C=C/C=C/C=C/C=C/[C@H](O[C@@H]2O[C@H](C)[C@@H](O)[C@H](N)[C@@H]2O)C[C@@H]2O[C@](O)(C[C@@H](O)C[C@@H](O)[C@H](O)CC[C@@H](O)C[C@@H](O)CC(=O)O[C@H]1C)C[C@H](O)[C@H]2C(=O)O [AMPHOTERICIN B] as the compound, how does the EC50 (Leishmania donovani [1]) read?
The EC50 was 240 nM.

What about the EC50 (Leishmania infantum [6]) of the same compound?
Its EC50 is 170 nM.

What about the EC50 (Leishmania infantum [7]) of the same compound?
Its EC50 is 100 nM.

And the EC50 (Leishmania infantum [8])?
The EC50 was 160 nM.

What about the EC50 (Leishmania donovani [2]) of the same compound?
The EC50 was 130 nM.

And the EC50 (Leishmania infantum [9])?
Its EC50 is 60 nM.

And the EC50 (THP-1)?
The EC50 was 27800 nM.

And the EC50 (Leishmania infantum [10])?
Its EC50 is 180 nM.

And the EC50 (Leishmania infantum [11])?
The EC50 was 50 nM.

What about the selectivity ratio [3] of the same compound?
Its selectivity ratio is 116.

And the EC50 (Leishmania infantum [12])?
The EC50 was 70 nM.

And the EC50 (Leishmania infantum [13])?
The EC50 was 160 nM.

For O=Cc1ccc(OCCCCCCCCCCCCCC[n+]2cccc3ccccc32)cc1O, which EC50 (Leishmania donovani [1]) is on record?
Its EC50 is 800 nM.

And the selectivity ratio [3]?
Its selectivity ratio is 3.7 to 5.

With COC(=O)c1ccc(OCCCCCCCCCC[P+](c2ccccc2)(c2ccccc2)c2ccccc2)cc1O as the compound, how does the EC50 (Leishmania donovani [1]) read?
The EC50 was < 1000 nM.

And the selectivity ratio [3]?
Its selectivity ratio is 2 to 27.

With O=C(OCCCCCCCCCCCCCC[P+](c1ccccc1)(c1ccccc1)c1ccccc1)c1ccc(O)cc1O as the compound, how does the EC50 (Leishmania donovani [1]) read?
The EC50 was 110 nM.

And the EC50 (Leishmania donovani [2])?
The EC50 was 40 nM.

What about the EC50 (THP-1) of the same compound?
The EC50 was 3020 nM.

What about the selectivity ratio [3] of the same compound?
Its selectivity ratio is 27.6.

With Cc1cc(O)ccc1C(=O)OCCCCCCCCCCCCCC[P+](c1ccccc1)(c1ccccc1)c1ccccn1 as the compound, how does the EC50 (Leishmania donovani [1]) read?
Its EC50 is 120 nM.

What about the EC50 (Leishmania donovani [2]) of the same compound?
Its EC50 is 180 nM.

And the EC50 (THP-1)?
The EC50 was 2350 nM.

And the selectivity ratio [3]?
Its selectivity ratio is 19.6.
